According to patent publication US20220081444A1, “6,7-DIHYDRO-4H-PYRAZOLO[1,5-A]PYRAZINE INDOLE-2-CARBOXAMIDES ACTIVE AGAINST THE HEPATITIS B VIRUS (HBV)” (AiCuris GmbH & Co. KG, priority 2018, published 2022):

tested on: HBV; details: Hepatitis B virus, HePAD38, 144 h, read-out: Cell Activity (EC50)

| SMILES | EC50 |
| --- | --- |
| CC(=O)N1CCC(C(=O)Nc2cc3n(n2)CCN(C(=O)c2cc4ccccc4[nH]2)C3)CC1 [Example 42, 1-acetyl-N-[5-(1H-indole-2-carbonyl)-4H,5H,6H,7H-pyrazolo[1,5-a]pyrazin-2-yl]piperidine-4-carboxamide] | < 1000 nM |
| O=C(c1cc2ccccc2[nH]1)N1CCn2nc(NS(=O)(=O)Cc3ccccc3)cc2C1 [Example 43, N-[5-(1H-indole-2-carbonyl)-4H,5H,6H,7H-pyrazolo[1,5-a]pyrazin-2-yl]-1-phenylmethanesulfonamide] | < 1000 nM |
| CCS(=O)(=O)Nc1cc2n(n1)CCN(C(=O)c1cc3ccccc3[nH]1)C2 [Example 45, N-[5-(1H-indole-2-carbonyl)-4H,5H,6H,7H-pyrazolo[1,5-a]pyrazin-2-yl]ethane-1-sulfonamide] | < 1000 nM |
| Cc1noc(C)c1S(=O)(=O)Nc1cc2n(n1)CCN(C(=O)c1cc3ccccc3[nH]1)C2 [Example 46, N-[5-(1H-indole-2-carbonyl)-4H,5H,6H,7H-pyrazolo[1,5-a]pyrazin-2-yl]-3,5-dimethyl-1,2-oxazole-4-sulfonamide] | < 1000 nM |
| CC(C)S(=O)(=O)Nc1cc2n(n1)CCN(C(=O)c1cc3ccccc3[nH]1)C2 [Example 47, N-[5-(1H-indole-2-carbonyl)-4H,5H,6H,7H-pyrazolo[1,5-a]pyrazin-2-yl]propane-2-sulfonamide] | < 1000 nM |
| Cc1nc(S(=O)(=O)Nc2cc3n(n2)CCN(C(=O)c2cc4ccccc4[nH]2)C3)cn1C [Example 48, [5-(1H-indole-2-carbonyl)-4H,5H,6H,7H-pyrazolo[1,5-a]pyrazin-2-yl]-1,2-dimethyl-1H-imidazole-4-sulfonamide] | 1000 to 10000 nM |
| Cn1cc(S(=O)(=O)Nc2cc3n(n2)CCN(C(=O)c2cc4ccccc4[nH]2)C3)cn1 [Example 49, N-[5-(1H-indole-2-carbonyl)-4H,5H,6H,7H-pyrazolo[1,5-a]pyrazin-2-yl]-1-methyl-1H-pyrazole-4-sulfonamide] | < 1000 nM |
| O=C(c1cc2ccccc2[nH]1)N1CCn2nc(NS(=O)(=O)c3cccnc3)cc2C1 [Example 50, N-[5-(1H-indole-2-carbonyl)-4H,5H,6H,7H-pyrazolo[1,5-a]pyrazin-2-yl]pyridine-3-sulfonamide] | < 1000 nM |
| O=C(c1cc2ccccc2[nH]1)N1CCn2nc(NS(=O)(=O)C3CCCCC3)cc2C1 [Example 51, N-[5-(1H-indole-2-carbonyl)-4H,5H,6H,7H-pyrazolo[1,5-a]pyrazin-2-yl]cyclohexanesulfonamide] | < 1000 nM |
| COCC1(S(=O)(=O)Nc2cc3n(n2)CCN(C(=O)c2cc4ccccc4[nH]2)C3)CC1 [Example 52, N-[5-(1H-indole-2-carbonyl)-4H,5H,6H,7H-pyrazolo[1,5-a]pyrazin-2-yl]-1-(methoxymethyl)cyclopropane-1-sulfonamide] | < 1000 nM |
| O=C(c1cc2ccccc2[nH]1)N1CCn2nc(NS(=O)(=O)C3CCOCC3)cc2C1 [Example 53, N-[5-(1H-indole-2-carbonyl)-4H,5H,6H,7H-pyrazolo[1,5-a]pyrazin-2-yl]oxane-4-sulfonamide] | < 1000 nM |
| COCC1(CNc2cc3n(n2)CCN(C(=O)c2cc4ccccc4[nH]2)C3)CC1 [Example 54, 5-(1H-indole-2-carbonyl)-N-{[1-(methoxymethyl)cyclopropyl]methyl}-4H,5H,6H,7H-pyrazolo[1,5-a]pyrazin-2-amine] | < 1000 nM |
| O=C(c1cc2ccccc2[nH]1)N1CCn2nc(NCC3CCCOC3)cc2C1 (stereo not drawn) [Example 55, 5-(1H-indole-2-carbonyl)-N-[(oxan-3-yl)methyl]-4H,5H,6H,7H-pyrazolo[1,5-a]pyrazin-2-amine] | < 1000 nM |
| O=C(c1cc2ccccc2[nH]1)N1CCn2nc(NCc3ccccc3)cc2C1 [Example 56, N-benzyl-5-(1H-indole-2-carbonyl)-4H,5H,6H,7H-pyrazolo[1,5-a]pyrazin-2-amine] | 1000 to 10000 nM |
| O=C(Nc1cc2n(n1)CCN(C(=O)c1cc3ccccc3[nH]1)C2)C1CCN(c2ccncc2)CC1 [Example 57, N-[5-(1H-indole-2-carbonyl)-4H,5H,6H,7H-pyrazolo[1,5-a]pyrazin-2-yl]-1-(pyridin-4-yl)piperidine-4-carboxamide] | < 1000 nM |
| COC(=O)N1CCC(C(=O)Nc2cc3n(n2)CCN(C(=O)c2cc4ccccc4[nH]2)C3)CC1 [Example 58, Methyl 4-{[5-(1H-indole-2-carbonyl)-4H,5H,6H,7H-pyrazolo[1,5-a]pyrazin-2-yl]carbamoyl}piperidine-1-carboxylate] | < 1000 nM |
| CC(C)(CO)CNc1cc2n(n1)CCN(C(=O)c1cc3ccccc3[nH]1)C2 [Example 59, 3-{[5-(1H-indole-2-carbonyl)-4H,5H,6H,7H-pyrazolo[1,5-a]pyrazin-2-yl]amino}-2,2-dimethylpropan-1-ol] | < 1000 nM |
| COC1(CNc2cc3n(n2)CCN(C(=O)c2cc4ccccc4[nH]2)C3)CCC1 [Example 60, 5-(1H-indole-2-carbonyl)-N-[(1-methoxycyclobutyl)methyl]-4H,5H,6H,7H-pyrazolo[1,5-a]pyrazin-2-amine] | < 1000 nM |

| SMILES | EC50 |
| --- | --- |
| O=C(Nc1cc2n(n1)CCN(C(=O)c1cc3ccccc3[nH]1)C2)C1CCNC(C(F)(F)F)C1 (stereo not drawn) [Example 61, N-[5-(1H-indole-2-carbonyl)-4H,5H,6H,7H-pyrazolo[1,5-a]pyrazin-2-yl]-2-(trifluoromethyl)piperidine-4-carboxamide] | < 1000 nM |
| O=C(Nc1cc2n(n1)CCN(C(=O)c1cc3ccccc3[nH]1)C2)C1CCN(CCO)CC1 [Example 62, 1-(2-hydroxyethyl)-N-[5-(1H-indole-2-carbonyl)-4H,5H,6H,7H-pyrazolo[1,5-a]pyrazin-2-yl]piperidine-4-carboxamide] | 1000 to 10000 nM |
| O=C(Nc1cc2n(n1)CCN(C(=O)c1cc3ccccc3[nH]1)C2)C1CCN(CC(F)(F)F)CC1 [Example 63, N-[5-(1H-indole-2-carbonyl)-4H,5H,6H,7H-pyrazolo[1,5-a]pyrazin-2-yl]-1-(2,2,2-trifluoroethyl)piperidine-4-carboxamide] | < 1000 nM |
| CS(=O)(=O)N1CCC(C(=O)Nc2cc3n(n2)CCN(C(=O)c2cc4ccccc4[nH]2)C3)CC1 [Example 64, N-[5-(1H-indole-2-carbonyl)-4H,5H,6H,7H-pyrazolo[1,5-a]pyrazin-2-yl]-1-methanesulfonylpiperidine-4-carboxamide] | < 1000 nM |
| NC(=O)N1CCC(C(=O)Nc2cc3n(n2)CCN(C(=O)c2cc4ccccc4[nH]2)C3)CC1 [Example 65, N4-[5-(1H-indole-2-carbonyl)-4H,5H,6H,7H-pyrazolo[1,5-a]pyrazin-2-yl]piperidine-1,4-dicarboxamide] | < 1000 nM |
| CC(=O)N1CC(C(=O)Nc2cc3n(n2)CCN(C(=O)c2cc4ccccc4[nH]2)C3)C1 [Example 66, 1-acetyl-N-[5-(1H-indole-2-carbonyl)-4H,5H,6H,7H-pyrazolo[1,5-a]pyrazin-2-yl]azetidine-3-carboxamide] | < 1000 nM |
| CNC(=O)Nc1cc2n(n1)CCN(C(=O)c1cc3ccccc3[nH]1)C2 [Example 67, 1-[5-(1H-indole-2-carbonyl)-4H,5H,6H,7H-pyrazolo[1,5-a]pyrazin-2-yl]-3-methylurea] | < 1000 nM |
| O=C(Nc1cc2n(n1)CCN(C(=O)c1cc3ccccc3[nH]1)C2)C1CCn2ccnc2C1 (stereo not drawn) [Example 68, N-[5-(1H-indole-2-carbonyl)-4H,5H,6H,7H-pyrazolo[1,5-a]pyrazin-2-yl]-5H,6H,7H,8H-imidazo[1,2-a]pyridine-7-carboxamide] | < 1000 nM |
| O=C(Nc1cc2n(n1)CCN(C(=O)c1cc3ccccc3[nH]1)C2)C1CCN(C2CCOCC2)CC1 [Example 69, N-[5-(1H-indole-2-carbonyl)-4H,5H,6H,7H-pyrazolo[1,5-a]pyrazin-2-yl]-1-(oxan-4-yl)piperidine-4-carboxamide] | < 1000 nM |
| CN1CC(C(=O)Nc2cc3n(n2)CCN(C(=O)c2cc4ccccc4[nH]2)C3)C1 [Example 70, N-[5-(1H-indole-2-carbonyl)-4H,5H,6H,7H-pyrazolo[1,5-a]pyrazin-2-yl]-1-methylazetidine-3-carboxamide] | 1000 to 10000 nM |
| O=C(c1cc2ccccc2[nH]1)N1CCn2nc(NCC3(O)CCC3)cc2C1 [Example 71, 1-({[5-(1H-indole-2-carbonyl)-4H,5H,6H,7H-pyrazolo[1,5-a]pyrazin-2-yl]amino}methyl)cyclobutan-1-ol] | < 1000 nM |
| CC(CO)CNc1cc2n(n1)CCN(C(=O)c1cc3ccccc3[nH]1)C2 (stereo not drawn) [Example 72, 3-{[5-(1H-indole-2-carbonyl)-4H,5H,6H,7H-pyrazolo[1,5-a]pyrazin-2-yl]amino}-2-methylpropan-1-ol] | < 1000 nM |
| O=C(Nc1cc2n(n1)CCN(C(=O)c1cc3ccccc3[nH]1)C2)C1CCNCC1(F)F (stereo not drawn) [Example 73, 3,3-difluoro-N-[5-(1H-indole-2-carbonyl)-4H,5H,6H,7H-pyrazolo[1,5-a]pyrazin-2-yl]piperidine-4-carboxamide] | < 1000 nM |
| O=C(Nc1cc2n(n1)CCN(C(=O)c1cc3ccccc3[nH]1)C2)C1CCN(C2CC2)CC1 [Example 74, 1-cyclopropyl-N-[5-(1H-indole-2-carbonyl)-4H,5H,6H,7H-pyrazolo[1,5-a]pyrazin-2-yl]piperidine-4-carboxamide] | < 1000 nM |
| CC1(CNc2cc3n(n2)CCN(C(=O)c2cc4ccccc4[nH]2)C3)CCOC1 (stereo not drawn) [Example 75, 5-(1H-indole-2-carbonyl)-N-[(3-methyloxolan-3-yl)methyl]-4H,5H,6H,7H-pyrazolo[1,5-a]pyrazin-2-amine] | < 1000 nM |
| O=C(c1cc2ccccc2[nH]1)N1CCn2nc(N[C@H]3C[C@H](O)C3)cc2C1 [Example 76, (1r,3r)-3-{[5-(1H-indole-2-carbonyl)-4H,5H,6H,7H-pyrazolo[1,5-a]pyrazin-2-yl]amino}cyclobutan-1-ol] | < 1000 nM |
| O=C(c1cc2ccccc2[nH]1)N1CCn2nc(N[C@H]3CCC[C@@H](O)C3)cc2C1 [Example 77, (1R,3S)-3-{[5-(1H-indole-2-carbonyl)-4H,5H,6H,7H-pyrazolo[1,5-a]pyrazin-2-yl]amino}cyclohexan-1-ol] | < 1000 nM |
| CC(C)OC1(CNc2cc3n(n2)CCN(C(=O)c2cc4ccccc4[nH]2)C3)CCC1 [Example 78, 5-(1H-indole-2-carbonyl)-N-{[1-(propan-2-yloxy)cyclobutyl]methyl}-4H,5H,6H,7H-pyrazolo[1,5-a]pyrazin-2-amine] | < 1000 nM |
